Results: patent publication US20200291100A1, “TREATMENT OF AGE-RELATED AND MITOCHONDRIAL DISEASES BY INHIBITION OF HIF-1 ALPHA FUNCTION” (President and Fellows of Harvard College, priority 2012, published 2020)

Assays:
[1] = tested on: PGC-1α/β knockout myotubes; experiment: HIF stabilizing compounds in PGC-1α/β knockout myotubes with or without SIRT1 overexpression; assay type: cell-based, mouse
Method: Next whether the ability of SIRT1 to regulate mitochondrial function independently of PGC-1α/β is mediated by HIF-1α was tested. […] Furthermore, cells expressing a mutant allele of HIF-1α that is constitutively stabilized due to the replacement of the two hydroxylated prolines with alanines (DPA) (FIG. 7A), caused genome asynchrony similar to hypoxia and treatment with DMOG (FIG. 7B).
Primary myoblasts cells were isolated from WT, SIRT1 KO (Price et al., 2012) and PGC-1α/β KO (Zechner et al., 2010) mice as previously described (Price et al., 2012). WT and PGC-1α/β KO primary myoblasts were plated and allowed to differentiate into myotubes by replacing the media with low glucose DMEM supplemented with 2% horse serum (Sigma-Aldrich) for 4 days. After the differentiation the cells were infected with empty vector or flag-SIRT1 adenovirus as described before (Gerhart-Hines et al., 2007). Media was replaced with fresh DMEM supplemented with 2% horse serum (Sigma-Aldrich) for an additional 48 hr and, after that the cells were harvested for the different assays as described. To investigate the role of HIF-1α in genome asynchrony, PGC-1α/β KO primary myotubes were treated for 12 hours with 1 mM DMOG (Sigma) or 10 μM DFO (Sigma), 24 h after infection with empty vector of flag-SIRT1 adenovirus or after 12 h treatment with […] NMN (Sigma).
RNA from skeletal muscle tissue and C2C12 cells were extracted with RNeasy mini kit (Qiagen) according to the instructions and quantified using the NanoDrop 1000 spectrophotometer (Thermo Scientific). cDNA was synthesized with the iSCRIP cDNA synthesis kit (BioRad) using 600 ng of RNA. Quantitative RT-PCR reactions were performed using 1 μM of primers and LightCycler® 480 SYBR Green Master (Roche) on an LightCycler® 480 detection system (Roche). Calculations were performed by a comparative method (2-ΔCT) using 18S as an internal control. For mtDNA analysis, total DNA was extracted with DNeasy blood and tissue kit (Qiagen). mtDNA was amplified using primers specific for the mitochondrial cytochrome c oxidase subunit 2 (COX2) gene and normalized to genomic DNA by amplification of the ribosomal protein s18 (rps18) nuclear gene. […]
Protein extracts from tissue or C2C12 cells were obtained by lysis in ice-cold lysis buffer (150 mM NaCl, 10 mM Tris HCl (pH 7.4), 1 mM EDTA, 1 mM EGTA, 1% Triton X-100, 0.5% NP-40) supplemented with a cocktail of protease and phosphatase inhibitors (Roche). Protein content was determined by the Bradford protein assay (Biorad), and 50 μg proteins were run on SDS-PAGE under reducing conditions. […] The immunostaining was detected using horseradish peroxidase-conjugated anti-rabbit or anti-mouse immunoglobulin for 1 h at room temperature.

[2] = tested on: SIRT1 KO mice; experiment: NMN treatment of inducible SIRT1 KO mice; assay type: in vivo, mouse; conditions: skeletal muscle of SIRT1 KO versus WT mice
Method: Whole body adult-inducible SIRT1 knockout mice were treated with tamoxifen for 5 weeks and the efficiency of deletion in DNA from tail samples was determined by PCR. Animals were then maintained on regular diet for 4 months. For the fasting experiments, mice were fasted for 16 hrs prior to sacrifice. All animal care followed the guidelines and was approved by the Institutional Animal Care and Use Committees (IACUCs) at Harvard
The inducible SIRT1 KO mouse allowed the testing of the involvement of SIRT1 in the effects of NMN in vivo.
C57BL/6J mice of 6, 22, or 30 months of age were obtained from the National Institutes of Aging mouse aging colony. Additionally 22 months old caloric restricted mice were also obtained from the National Institutes of Aging mouse aging colony. EGLN1 KO, SIRT1 KO and SIRT1 OE mice were generated as previously described (Minamishima et al., 2008; Price et al., 2012). […]
RNA from skeletal muscle tissue and C2C12 cells were extracted with RNeasy mini kit (Qiagen) according to the instructions and quantified using the NanoDrop 1000 spectrophotometer (Thermo Scientific). cDNA was synthesized with the iSCRIP cDNA synthesis kit (BioRad) using 600 ng of RNA. Quantitative RT-PCR reactions were performed using 1 μM of primers and LightCycler® 480 SYBR Green Master (Roche) on an LightCycler® 480 detection system (Roche). […]

Row | Compound | expression of mitochondrial-encoded genes ([1]; DMOG compared to vehicle control, no SIRT1 overexpression) | HIF-1α protein (immunoblot) ([1]; DMOG versus DMSO (FIG. 21C)) | effect on induction of mitochondrial ETC genes by SIRT1 overexpression ([1]; SIRT1 adenovirus, 1 mM DMOG or 10 μM DFO, 12 hours) | ability of NMN to induce mitochondrially-encoded genes ([2]; qPCR) | ability of NMN to improve mitochondrial function ([2]; mitochondrial membrane potential (FIG. 10I))
1 | COC(=O)CNC(=O)C(=O)OC [DMOG, dimethyloxaloylglycine] | induced a decline | stabilizes HIF-1α protein | completely blocked | – | –
2 | NC(=O)c1ccc[n+]([C@@H]2O[C@H](COP(=O)([O-])O)[C@@H](O)[C@H]2O)c1 [NMN, nicotinamide mononucleotide] | – | – | – | lost in animals lacking SIRT1 | lost in animals lacking SIRT1
